Data from patent publication US6528685B2 (Teva Pharmaceutical Industries, Ltd., priority 1994, dated 2003).

How the values were obtained:
hypoxic rat [1] = experiment: α-MpT-induced hypokinesia in hypoxic rat, Experiment 1A; assay type: in vivo; settings: hypoxia group, ten hour observation
Experimental: Wistar male rats, 15-19 month-old, were exposed to a single hypoxic episode which is assumed to decrease the level of dopamine in the brain. […] The drugs were administered by gavage, using a special syringe equipped with rounded tip that could be directed into the stomach. The dose was contained in 0.3-0.5 mL of distilled water. The rats were pretreated for 70-80 days with daily doses of the test drugs and received intra-peritoneal (i.p.) α-MpT (α-methyl-p-tyrosine) at a dose of 100 mg/kg in 0.3-0.5 mL saline. Controls received saline. α-MpT is assumed to inhibit the formation of L-Dopa from tyrosine and, consequently the formation of dopamine itself. Lack of central dopamine is expressed as hypokinesia. Following the injection of α-MpT, motor activity was recorded for the duration of 10 hours. Locomotion scores were taken in seven fully-computerized cages (26×25 cm) having a grid of infra-red beams at 4 cm-intervals.
Crossing of a beam initiated an electric signal which was fed into a computer. The number of crossings over a given period provided a measure of locomotion.
The records gave two data categories: (a) “small movements” originating in stationary activities such as grooming and scratching and (b) “big movements” originating in ambulation and recorded as the simultaneous crossing of more than two beams. “Total movements” include both categories.
Counts of motor activity in the presence of α-MpT were related as percent with respect to counts in its absence in the corresponding control group (unlesioned or hypoxia-lesioned). Motor activity counts of drug-treated rats were related to the hypoxia saline-treated as 100%. All behavioral tests were performed 90-120 min. after administration of the last dose of the test compound.

hypoxic rat [2] = experiment: Amphetamine-induced stereotype behavior in hypoxic rat, Experiment 2A; assay type: in vivo; settings: hypoxic group, with respect to hypoxia and amphetamine control
Experimental: (§1) Wistar male rats, 15-19 month-old, were exposed to a single hypoxic episode as described above. […] Rats pretreated for 29 days with daily doses of the test drugs (0.5 mg/kg), received a sub-cutaneous (s.c.) injection of D-amphetamine sulfate at a dose of 0.5 mg/kg. D-amphetamine is known to cause an enhancement of the effects of CNS dopamine by a mechanism involving dopamine release, and blockage of its uptake and its metabolism by MAO. The behavioral manifestation of amphetamine action is a stereotypic pattern of lateral head movements. Counts of lateral head movements were taken over two successive intervals of 1 min each, 45-60 min after the injection of amphetamine and then averaged.

hypoxic rat [3] = experiment: Amphetamine-induced stereotype behavior in hypoxic rat, Experiment 2B; assay type: in vivo
Experimental: as §1
The procedure of the second Experiment 2B was similar to the one used in Experiment 2A with the following changes:
1) Animals: 12 month-old rats.
The drugs were given by i.p. injection.
3) Duration of the treatment: 14 days.

hypoxic rat [4] = experiment: Passive avoidance test in hypoxic rat, Experiment 3A; assay type: in vivo; settings: hypoxic rats
Experimental: Wistar male rats, 15-19 month-old, were exposed to a single hypoxic episode as described above. […] The passive avoidance test was performed on day 13 after initiation the drug treatment. The apparatus consisted of a lit chamber that can be separated from a dark chamber by a sliding door. At training, a rat is placed in the lit chamber for 30 seconds, then the door is opened. The rat moves to the dark chamber after a short delay—the latency, that is recorded. Upon entry into the dark chamber, the door is shut closed and a 0.3-mA footshock is delivered for 3 seconds by a Grass S-88 stimulator. Retention of the experience is determined after 48 hours by repeating the test and recording the latency to an arbitrary maximum of 300 seconds. Longer latencies are ascribed to retention of memory and improved cognition.

hypoxia-lesioned rats = experiment: Water maze working memory test, Experiment 3B; assay type: in vivo, rat; settings: rat, in vivo
Text: The apparatus used consists of a circular water tank 160 cm in diameter filled with water to a depth of 38 cm. The water was made cloudy by the addition of milk powder. A clear Plexiglass 15 cm platform, supported by a movable stand rest on the bottom of the tank was submerged to a depth of 2 cm from the water surface. Normally a swimming rat cannot perceive the location of the platform but it may recall it from a previous experience and training, unless it suffers from some memory impairment. The time taken to locate the platform is measured in seconds and referred to as the latency. During the experiment all orientational cues such as ceiling lights etc. remained unchanged. Longer latencies are observed with rats with some impairment to their memory.
Each rat was given two trails a day for four days, entering the pool from the same point of entry each day. The position of the platform was changed daily to one of four predetermined positions. Each rat was tested twice each day over the four days, referred to as runs 1 and 2 on sessions I-IV. Initially the rat was placed on the platform for 60 seconds. It was then removed and placed at the point of entry and allowed a maximum of 120 seconds to locate the platform (run 1). The second run for that day followed 60 seconds later (run 2). In the second run the rat is expected to find the platform much sooner, having benefitted from its earlier experience. […] The average latency of run 1 in four sessions on four different days was then related to the corresponding parameter of run 2. The smaller the ratio of […], the better the short range learning score.
Table 8. […] The data are the latencies in seconds±SEM that it took a given group to locate a submerged and invisible platform the location of which was shifted from one session to the other. The time interval between sessions was one day, and that between successive runs was 60 seconds. (n=7-8 rats per group)

rats [5] = experiment: Closed head injury in rats, Experiment 4C (dose range); assay type: in vivo, rat; settings: doses 0.03 mg/kg to 3 mg/kg
Experimental: (§2) After the second evaluation of motor function, the animals were sacrificed and the brains were removed. A piece of tissue was weighed to yield a wet weight (WW), then dried in an oven for 24 hours at 95 C. and re-weighed to yield a dry weight(DW). Percentage water content in the tissue was calculated as (WW-DW)×100/WW.

rats [6] = experiment: Closed head injury in rats, Experiment 4D (times of administration); assay type: in vivo, rat; settings: RAI 1 mg/kg; times of administration: 0, 4, 8, 12 h
Experimental: as §2

rats [7] = experiment: Closed head injury in rats, Experiment 4E (therapeutic window); assay type: in vivo, rat; settings: 1 mg/kg
Experimental: as §2

MAO-A = target: T1, MAO-A (Rattus norvegicus, UniProt P21396); settings: chronic or acute treatment
T1 sequence (P21396 1-526): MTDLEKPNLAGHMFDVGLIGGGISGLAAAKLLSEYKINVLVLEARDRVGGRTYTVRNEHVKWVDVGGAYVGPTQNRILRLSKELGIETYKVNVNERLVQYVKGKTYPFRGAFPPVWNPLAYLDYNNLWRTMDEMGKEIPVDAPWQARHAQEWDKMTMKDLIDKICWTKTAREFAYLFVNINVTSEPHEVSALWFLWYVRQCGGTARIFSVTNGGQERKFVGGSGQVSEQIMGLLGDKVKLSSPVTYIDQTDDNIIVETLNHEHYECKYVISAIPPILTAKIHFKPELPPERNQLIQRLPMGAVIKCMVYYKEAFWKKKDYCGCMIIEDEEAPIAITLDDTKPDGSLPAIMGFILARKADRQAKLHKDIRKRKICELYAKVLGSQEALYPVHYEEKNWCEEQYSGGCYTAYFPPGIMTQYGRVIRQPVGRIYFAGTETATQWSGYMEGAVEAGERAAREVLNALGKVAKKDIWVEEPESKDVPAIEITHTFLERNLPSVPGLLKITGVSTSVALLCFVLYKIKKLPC
Text: (§3) The brains of some rats from each experimental group in Exp. 1 (chronic treatment of 80 days) and Exp. 2 (acute treatment of 14 days) were ex vivo analyzed for MAO-A and MAO-B activity.

MAO-B = target: T2, MAO-B (Rattus norvegicus, UniProt P19643); settings: RAI: only chronic treatment; deprenyl: acute or chronic treatment
T2 sequence (P19643 1-520): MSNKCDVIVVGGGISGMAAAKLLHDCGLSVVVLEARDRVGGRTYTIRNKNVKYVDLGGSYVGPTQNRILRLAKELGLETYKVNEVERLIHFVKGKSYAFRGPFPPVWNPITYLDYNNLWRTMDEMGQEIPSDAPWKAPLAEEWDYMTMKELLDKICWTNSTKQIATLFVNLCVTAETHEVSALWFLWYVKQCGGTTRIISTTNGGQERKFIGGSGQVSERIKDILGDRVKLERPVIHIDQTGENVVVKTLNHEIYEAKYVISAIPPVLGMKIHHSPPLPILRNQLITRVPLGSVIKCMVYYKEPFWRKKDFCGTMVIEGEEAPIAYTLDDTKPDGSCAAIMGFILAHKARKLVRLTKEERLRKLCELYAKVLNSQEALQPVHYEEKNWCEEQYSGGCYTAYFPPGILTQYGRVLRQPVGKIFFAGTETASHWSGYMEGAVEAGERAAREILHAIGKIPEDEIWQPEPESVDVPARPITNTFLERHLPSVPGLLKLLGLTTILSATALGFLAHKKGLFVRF
Text: as §3

[8] = Neurotoxicity in rats, positional sense test and gait stance test; settings: rat, in vivo, po
Experimental: (§4) Neurotoxicity of the claimed agents was also assessed in mice (i.p. administration) by the rotorod ataxia test and/or in rats (p.o. administration) by positional sense test and gait stance test. […] The term quantitating the neurotoxicity is the medial neurological toxic dose (TD50), was determined in the above tests.

in vivo = settings: mouse, in vivo, ip
Experimental: as §4

rats [9] = experiment: Maximal electroshock (MES) model, rats; settings: Rattus norvegicus, po, read-out: RATS MES 50
mice = experiment: Maximal electroshock (MES) model, mice; settings: Mus musculus, ip, read-out: MICE MES ED50

| Structure (SMILES) | effect on hypokinetic syndrome, big movements, in words (hypoxic rat [1]) | potentiation of stereotypic behavior induced by amphetamine, in words (hypoxic rat [2]) | potentiation of stereotypic behavior (lateral head movements), in words (hypoxic rat [3]) | passive avoidance performance, in words (hypoxic rat [4]) | water maze performance versus hypoxia group, in words (hypoxia-lesioned rats) | dose at which a maximal response was observed (rats [5]) [mg/kg] | % water in the brain (rats [6]) [%] | effectiveness when given after induction of head trauma, in words (rats [7]) | effect on MAO-A activity, in words (MAO-A) | effect on MAO-B activity, in words (MAO-B) | TD50 [8] [mg/kg] | TD50 (in vivo) [mg/kg] | melting point [°C] | ED50 (rats [9]) [mg/kg] | ED50 (mice) [mg/kg] |
| --- | --- | --- | --- | --- | --- | --- | --- | --- | --- | --- | --- | --- | --- | --- | --- |
| N[C@@H]1CCc2ccccc21 [R-AI, (R)-1-aminoindan] | corrected the hypokinetic syndrome | significant potentiation | significant potentiation | improved their performance to control level | tended towards superior performance | 0.3 | 81.5 ± 0.5 | still effective even if given 3 hours after the induction of head trauma | does not have an effect on MAO-A activity | can partially inhibit |  |  |  |  |  |
| CC(=O)NC1CCc2ccc(F)cc21 (racemic) [Compound 22, (rac)-6-Fluoro-N-acetyl-1-aminoindan] |  |  |  |  |  |  |  |  |  |  | > 50 | > 100 | 139 to 141 | < 50 | < 100 |
